Source: PubChem BioAssay AID1963845 (Molecular Pharmacology Branch, DTP, NCI, 2024)

Tested on: 429239-143-T-J1-PDC complex spheroid viability
Test: Anticancer human tumor 429239-143-T-J1-PDC patient-derived small cell lung carcinoma cell line growth inhibition [POLQ]
Settings: for IC50: curve of first compound; for viability, T/C: stronger effect = lower value; active = viability on the fitted dose curve at most 10% of control; inactive = the rest
In short: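 Growth inhibition in 3D: complex spheroids (tumor PDC, HUVEC, MSC) treated with POLQ inhibitor combinations; where Cmax unknown, highest tested concentration 10 microM, except SN-38 at 1 microM.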

[1] = second compound 0.0316 µM, first compound 0.0316 µM
[2] = second compound 0.0316 µM, first compound 0.1 µM
[3] = second compound 0.0316 µM, first compound 0.316 µM
[4] = second compound 0.0316 µM, first compound 1 µM
[5] = second compound 0.0316 µM, first compound 3.16 µM
[6] = second compound 0.0316 µM, first compound 10 µM
[7] = second compound 0.1 µM, first compound 0.0316 µM
[8] = second compound 0.1 µM, first compound 0.1 µM
[9] = second compound 0.1 µM, first compound 0.316 µM
[10] = second compound 0.1 µM, first compound 1 µM
[11] = second compound 0.1 µM, first compound 3.16 µM
[12] = second compound 0.1 µM, first compound 10 µM
[13] = second compound 0.316 µM, first compound 0.0316 µM
[14] = second compound 0.316 µM, first compound 0.1 µM
[15] = second compound 0.316 µM, first compound 0.316 µM
[16] = second compound 0.316 µM, first compound 1 µM
[17] = second compound 0.316 µM, first compound 3.16 µM
[18] = second compound 0.316 µM, first compound 10 µM
[19] = second compound 1 µM, first compound 0.0316 µM
[20] = second compound 1 µM, first compound 0.1 µM
[21] = second compound 1 µM, first compound 0.316 µM
[22] = second compound 1 µM, first compound 1 µM
[23] = second compound 1 µM, first compound 3.16 µM
[24] = second compound 1 µM, first compound 10 µM
[25] = second compound 3.16 µM, first compound 0.0316 µM
[26] = second compound 3.16 µM, first compound 0.1 µM
[27] = second compound 3.16 µM, first compound 0.316 µM
[28] = second compound 3.16 µM, first compound 1 µM
[29] = second compound 3.16 µM, first compound 3.16 µM
[30] = second compound 3.16 µM, first compound 10 µM
[31] = second compound 10 µM, first compound 0.0316 µM
[32] = second compound 10 µM, first compound 0.1 µM
[33] = second compound 10 µM, first compound 0.316 µM
[34] = second compound 10 µM, first compound 1 µM
[35] = second compound 10 µM, first compound 3.16 µM
[36] = second compound 10 µM, first compound 10 µM
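Note: luminescence signal used as surrogate measure of viable cells; spheroids exposed to compounds for seven days before readout.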
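Throughout, for viability, T/C: 100% = DMSO vehicle control viability as luminescence relative to vehicle.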

O=c1[nH]cc(F)c(=O)[nH]1 + Cc1cccc(N(C)C(=O)C2C(O)CCN2c2nc(C)cc(C(F)(F)F)c2C#N)c1
9.51 µM: IC50 (second compound 10 µM)
9.33 µM: IC50 (second compound 1 µM)
> 10 µM: IC50 (second compound 0.0316 µM) | IC50 (second compound 0.316 µM) | IC50 (second compound 3.16 µM)
6.82 µM: IC50 (second compound 0.1 µM)
inactive: viability, T/C [1] 108% | viability, T/C [2] 109% | viability, T/C [3] 101% | viability, T/C [4] 105% | viability, T/C [5] 65.9% | viability, T/C [6] 54.5% | viability, T/C [7] 106% | viability, T/C [8] 92.3% | viability, T/C [9] 104% | viability, T/C [10] 91.1% | viability, T/C [11] 61.4% | viability, T/C [12] 44.4% | viability, T/C [13] 96.6% | viability, T/C [14] 112% | viability, T/C [15] 101% | viability, T/C [16] 104% | viability, T/C [17] 56.5% | viability, T/C [18] 50.8% | viability, T/C [19] 105% | viability, T/C [20] 110% | viability, T/C [21] 120% | viability, T/C [22] 87.8% | viability, T/C [23] 72.4% | viability, T/C [24] 47.7% | viability, T/C [25] 95.9% | viability, T/C [26] 97.2% | viability, T/C [27] 114% | viability, T/C [28] 78.2% | viability, T/C [29] 56.5% | viability, T/C [30] 47.6% | viability, T/C [31] 98.7% | viability, T/C [32] 93.9% | viability, T/C [33] 97.5% | viability, T/C [34] 83.9% | viability, T/C [35] 65% | viability, T/C [36] 49.2%

CC(C)n1c(=O)n(C)c2cnc3cc(F)c(-c4ccc(OCCCN5CCCCC5)nc4)cc3c21 + Nc1ccc(C#CCN(C(=O)Cc2ncc(C(F)(F)F)cc2C(F)(F)F)c2ccc(F)cc2)nn1
inactive: viability, T/C [1] 98.5% | viability, T/C [2] 107% | viability, T/C [3] 92.2% | viability, T/C [4] 109% | viability, T/C [5] 102% | viability, T/C [6] 97.8% | viability, T/C [7] 102% | viability, T/C [8] 105% | viability, T/C [9] 99.9% | viability, T/C [10] 102% | viability, T/C [11] 106% | viability, T/C [12] 90.9% | viability, T/C [13] 101% | viability, T/C [14] 107% | viability, T/C [15] 93.3% | viability, T/C [16] 104% | viability, T/C [17] 106% | viability, T/C [18] 91.1% | viability, T/C [19] 99.1% | viability, T/C [20] 101% | viability, T/C [21] 105% | viability, T/C [22] 102% | viability, T/C [23] 105% | viability, T/C [24] 93% | viability, T/C [25] 97.1% | viability, T/C [26] 91.4% | viability, T/C [27] 98.9% | viability, T/C [28] 98.6% | viability, T/C [29] 100% | viability, T/C [30] 91.1% | viability, T/C [31] 105% | viability, T/C [32] 103% | viability, T/C [33] 97.3% | viability, T/C [34] 99.4% | viability, T/C [35] 91.5% | viability, T/C [36] 94.3%
> 10 µM: IC50 (second compound 0.0316 µM) | IC50 (second compound 0.1 µM) | IC50 (second compound 0.316 µM) | IC50 (second compound 1 µM) | IC50 (second compound 3.16 µM) | IC50 (second compound 10 µM)

CC1COCCN1c1cc(C2(O)CC3CCC(C2)O3)c2cnn(-c3ccn[nH]3)c2n1 (stereo unspecified) + Nc1ccc(C#CCN(C(=O)Cc2ncc(C(F)(F)F)cc2C(F)(F)F)c2ccc(F)cc2)nn1
0.263 µM: IC50 (second compound 1 µM)
0.232 µM: IC50 (second compound 3.16 µM)
0.251 µM: IC50 (second compound 0.1 µM)
0.187 µM: IC50 (second compound 10 µM)
0.269 µM: IC50 (second compound 0.316 µM)
0.273 µM: IC50 (second compound 0.0316 µM)
active: viability, T/C [5] 3.72% | viability, T/C [6] 2.1% | viability, T/C [11] 3.33% | viability, T/C [12] 2.36% | viability, T/C [16] 7.06% | viability, T/C [17] 3.37% | viability, T/C [18] 2.33% | viability, T/C [22] 6.97% | viability, T/C [23] 3.6% | viability, T/C [24] 2.11% | viability, T/C [28] 7.77% | viability, T/C [29] 3.26% | viability, T/C [30] 2.52% | viability, T/C [34] 6.28% | viability, T/C [35] 3.88% | viability, T/C [36] 2.51%
inactive: viability, T/C [1] 84.1% | viability, T/C [2] 72% | viability, T/C [3] 48.2% | viability, T/C [4] 7.65% | viability, T/C [7] 83.8% | viability, T/C [8] 70.5% | viability, T/C [9] 46.3% | viability, T/C [10] 7.55% | viability, T/C [13] 83.9% | viability, T/C [14] 71.3% | viability, T/C [15] 47.9% | viability, T/C [19] 78.9% | viability, T/C [20] 69.5% | viability, T/C [21] 46.8% | viability, T/C [25] 81.1% | viability, T/C [26] 70.4% | viability, T/C [27] 43.1% | viability, T/C [31] 83.4% | viability, T/C [32] 66.9% | viability, T/C [33] 36.4%
